According to paper PMC7824769, “Identification of Small Molecules Blocking the Pseudomonas aeruginosa Type III Secretion System Protein PcrV” (Biomolecules, 2021):

Molecular target: PcrV (Pseudomonas aeruginosa, UniProt G3XD49)
Assay: SPR library screening at 100 µM, PcrV versus deactivated control protein CAII
Assay type: binding
Details: Figure 2
Protocol: The SPR screening was performed using the ProteOn^TM XPR36 Protein Interaction Array System (Bio-Rad Laboratories Inc., Hercules, CA, USA) with ProteOn GLH sensor chip (Bio-Rad Laboratories Inc., Hercules, CA, USA), and the results were analyzed with the ProteOn Manager software^TM (Bio-Rad Laboratories Inc., Hercules, CA, USA), Excel 2016 (Microsoft Office), and GraphPad Prism 7.04. All SPR experiments were performed at 25 °C. The multichannel module of the ProteOn system was in the vertical position during protein immobilization. The proteins were attached to the surface of a GLH sensor chip via amine coupling chemistry. A buffer scouting was performed to elucidate the optimal binding conditions of PcrV to the GLH sensor chip. First, channels 1–4 on the chip surface were activated using a 1:1 mixture of 40 mM 1-ethyl-3-(3-dimethylaminopropyl)carbodiimide hydrochloride (EDAC) (Bio-Rad Laboratories Inc., Hercules, CA, USA) and 10 mM N-hydroxysulfosuccinimide (sulfo-NHS, Bio-Rad Laboratories Inc., Hercules, CA, USA) for 300 s at 30 µL/min. Next, the proteins PcrV (33,398.6 Da, 6.37 mg/mL) was diluted in 10 mM NaOAc (pH 4, 4.5, and 5) to 0.05 mg/mL. PcrV was immobilized in channel 1–3 for 540 s at 30 µL/min. […] The final amount of immobilized protein was measured in resonance units (RU) relative to the signal of the baseline prior activation. […]

PcrV, sequence (G3XD49 entry or part of it): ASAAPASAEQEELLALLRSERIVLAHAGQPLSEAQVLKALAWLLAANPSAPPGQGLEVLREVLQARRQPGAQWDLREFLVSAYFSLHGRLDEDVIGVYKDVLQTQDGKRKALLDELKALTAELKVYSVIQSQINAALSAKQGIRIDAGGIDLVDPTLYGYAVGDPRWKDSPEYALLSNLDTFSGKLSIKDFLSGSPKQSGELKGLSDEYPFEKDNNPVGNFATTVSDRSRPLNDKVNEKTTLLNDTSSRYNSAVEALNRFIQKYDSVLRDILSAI

Cc1c(Br)ccc(OCCCC(=O)O)c1C [Compound H1]
Selectivity of binding to PcrV over CAII in SPR screening: selective PcrV binders
